Assay results taken from PubChem BioAssay AID256 (DTP/NCI, 2004).
“And” between values parts separate entries of the source, which are not always exact repeats. Equal entries are not always repeated. Inconclusive results and toxic doses are left out.

Tested on: CD2F1 mice, L1210 leukemia ip, survival T/C
Experiment: NCI In Vivo Anticancer Drug Screen. Data for tumor model L1210 Leukemia (intraperitoneal) in CD2F1 (CDF1) mice
Conditions: higher = longer survival
Method in brief: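 Vehicle-treated tumor-bearing mice served as controls (C) for compound-treated mice (T). Reported figure is T divided by C.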

[1] = endpoint: mean survival time, dose: 100.0 mg/kg/injection, schedule: Q04DX003 (ip), vehicle: Klucel (hydroxypropylcellulose) (HPC)
[2] = endpoint: mean survival time, dose: 100.0 mg/kg/injection, schedule: Q04DX002 (ip), vehicle: saline with Tween-80
[3] = endpoint: mean survival time, dose: 200.0 mg/kg/injection, schedule: Q04DX002 (ip), vehicle: saline with Tween-80
[4] = endpoint: mean survival time, dose: 100.0 mg/kg/injection, schedule: Q04DX003 (ip), vehicle: saline with Tween-80
[5] = endpoint: mean survival time, dose: 200.0 mg/kg/injection, schedule: Q04DX003 (ip), vehicle: saline with Tween-80
[6] = endpoint: mean survival time, dose: 400.0 mg/kg/injection, schedule: Q04DX003 (ip), vehicle: saline with Tween-80
[7] = endpoint: mean survival time, dose: 100.0 mg/kg/injection, schedule: Q01DX009 (ip), vehicle: saline
[8] = endpoint: mean survival time, dose: 200.0 mg/kg/injection, schedule: Q01DX009 (ip), vehicle: saline
[9] = endpoint: mean survival time, dose: 400.0 mg/kg/injection, schedule: Q01DX009 (ip), vehicle: saline
[10] = endpoint: mean survival time, dose: 6.25 mg/kg/injection, schedule: Q01DX009 (ip), vehicle: saline
[11] = endpoint: mean survival time, dose: 12.5 mg/kg/injection, schedule: Q01DX009 (ip), vehicle: saline
[12] = endpoint: mean survival time, dose: 25.0 mg/kg/injection, schedule: Q01DX009 (ip), vehicle: saline
[13] = endpoint: mean survival time, dose: 50.0 mg/kg/injection, schedule: Q04DX003 (ip), vehicle: saline with Tween-80

## COC(=O)CCC1CCCC(CCC(=O)OC)C1=O (configuration not stated)
[1]
  T/C: 87 % of control
endpoint: mean survival time, dose: 200.0 mg/kg/injection, schedule: Q04DX003 (ip), vehicle: Klucel (hydroxypropylcellulose) (HPC)
  T/C: 94 % of control
endpoint: mean survival time, dose: 400.0 mg/kg/injection, schedule: Q04DX003 (ip), vehicle: Klucel (hydroxypropylcellulose) (HPC)
  T/C: 92 % of control

## CC[C@@H](O)C[C@H]1CCC[C@@]2(C[C@@H]3OC(=O)/C=C/[C@@](C)(O)[C@@H](O)[C@H](C)[C@@H](O)[C@H](OC4CCC(N(C)C)C(C)O4)[C@@H](O)[C@](C)(O)CCCCC/C=C/[C@@H]4CC(C)(C)O[C@@]4(O)C[C@H](O2)[C@H]3C)O1 (some centres not stated)
endpoint: mean survival time, dose: 0.25 mg/kg/injection, schedule: Q01DX009 (ip), vehicle: saline
  T/C: 109 % of control

## CC(=O)OC1(C)CC(C)(C)N=[N+]1[O-] (configuration not stated)
endpoint: mean survival time, dose: 25.0 mg/kg/injection, schedule: Q01DX009 (ip), vehicle: Klucel (hydroxypropylcellulose) (HPC)
  T/C: 96 % of control
endpoint: mean survival time, dose: 50.0 mg/kg/injection, schedule: Q01DX009 (ip), vehicle: Klucel (hydroxypropylcellulose) (HPC)
  T/C: 101 % of control
endpoint: mean survival time, dose: 100.0 mg/kg/injection, schedule: Q01DX009 (ip), vehicle: Klucel (hydroxypropylcellulose) (HPC)
  T/C: 101 % of control
endpoint: mean survival time, dose: 200.0 mg/kg/injection, schedule: Q01DX009 (ip), vehicle: Klucel (hydroxypropylcellulose) (HPC)
  T/C: 105 % of control

## O=C(O)c1c(F)cccc1Br
[2]
  T/C: 102 % of control
[3]
  T/C: 98 % of control
endpoint: mean survival time, dose: 400.0 mg/kg/injection, schedule: Q04DX002 (ip), vehicle: saline with Tween-80
  T/C: 102 % of control

## O=[N+]([O-])c1cc(Cl)ccc1O
endpoint: mean survival time, dose: 100.0 mg/kg/injection, schedule: Q01DX009 (ip), vehicle: saline with Tween-80
  T/C: 93 % of control
endpoint: mean survival time, dose: 200.0 mg/kg/injection, schedule: Q01DX009 (ip), vehicle: saline with Tween-80
  T/C: 90 % of control

## CCOC(=O)Oc1c(Cl)c(Cl)c(Cl)c(Cl)c1Cl
[4]
  T/C: 96 % of control
[5]
  T/C: 96 % of control
[6]
  T/C: 95 % of control

## O=C(O)c1nn2c(=O)c3cccc4cccc(c43)c2c1C(=O)O
endpoint: mean survival time, dose: 25.0 mg/kg/injection, schedule: Q04DX002 (ip), vehicle: saline with Tween-80
  T/C: 95 % of control
endpoint: mean survival time, dose: 50.0 mg/kg/injection, schedule: Q04DX002 (ip), vehicle: saline with Tween-80
  T/C: 98 % of control
[2]
  T/C: 95 % of control
[3]
  T/C: 95 % of control

## NC(=O)COS(=O)(=O)O
[7]
  T/C: 104 % of control
[8]
  T/C: 104 % of control
[9]
  T/C: 108 % of control

## CN(C)c1cc2c3c(c1)CCCN3CCC2
endpoint: mean survival time, dose: 3.13 mg/kg/injection, schedule: Q01DX009 (ip), vehicle: saline
  T/C: 98 % of control
[10]
  T/C: 109 % of control
[11]
  T/C: 96 % of control

## CC(C)=NNCCO
[10]
  T/C: 93 % of control
[11]
  T/C: 95 % of control
[12]
  T/C: 104 % of control

## COC/C(=N/Nc1ccc([N+](=O)[O-])cc1[N+](=O)[O-])c1ccccc1
[4]
  T/C: 102 % of control
[5]
  T/C: 108 % of control
[6]
  T/C: 100 % of control

## OCCN1CCOCC1
[7]
  T/C: 103 % of control
endpoint: mean survival time, dose: 100.0 mg/kg/injection, schedule: Q04DX003 (ip), vehicle: saline
  T/C: 98 % of control
[8]
  T/C: 102 % of control
endpoint: mean survival time, dose: 200.0 mg/kg/injection, schedule: Q04DX003 (ip), vehicle: saline
  T/C: 95 % of control
[9]
  T/C: 103 % of control
endpoint: mean survival time, dose: 400.0 mg/kg/injection, schedule: Q04DX003 (ip), vehicle: saline
  T/C: 97 % of control

## Nc1nc(N)c(N=Nc2cccc3ccccc23)c(N)n1
endpoint: mean survival time, dose: 6.25 mg/kg/injection, schedule: Q01DX009 (ip), vehicle: other
  T/C: 98 % of control
endpoint: mean survival time, dose: 12.5 mg/kg/injection, schedule: Q01DX009 (ip), vehicle: other
  T/C: 96 % of control
endpoint: mean survival time, dose: 25.0 mg/kg/injection, schedule: Q01DX009 (ip), vehicle: other
  T/C: 95 % of control
endpoint: mean survival time, dose: 25.0 mg/kg/injection, schedule: Q01DX009 (ip), vehicle: water
  T/C: 103 % of control
endpoint: mean survival time, dose: 50.0 mg/kg/injection, schedule: Q01DX009 (ip), vehicle: other
  T/C: 95 % of control
endpoint: mean survival time, dose: 50.0 mg/kg/injection, schedule: Q01DX009 (ip), vehicle: water
  T/C: 104 % of control
endpoint: mean survival time, dose: 100.0 mg/kg/injection, schedule: Q01DX009 (ip), vehicle: other
  T/C: 96 % of control
endpoint: mean survival time, dose: 100.0 mg/kg/injection, schedule: Q01DX009 (ip), vehicle: water
  T/C: 87 % of control

## Cc1cccc2c(CBr)cc(=O)[nH]c12
endpoint: mean survival time, dose: 12.5 mg/kg/injection, schedule: Q04DX003 (ip), vehicle: saline with Tween-80
  T/C: 101 % of control
endpoint: mean survival time, dose: 25.0 mg/kg/injection, schedule: Q04DX003 (ip), vehicle: saline with Tween-80
  T/C: 101 % of control
[13]
  T/C: 101 % of control

## ClCc1ccc(CCl)cc1
endpoint: mean survival time, dose: 25.0 mg/kg/injection, schedule: Q04DX003 (ip), vehicle: Klucel (hydroxypropylcellulose) (HPC)
  T/C: 98 % of control
endpoint: mean survival time, dose: 50.0 mg/kg/injection, schedule: Q04DX003 (ip), vehicle: Klucel (hydroxypropylcellulose) (HPC)
  T/C: 105 % of control
[1]
  T/C: 89 % of control

## COC(=O)C1C(O)C(C)C(O)C(C)/C=C\C=C(C)C(=O)Nc2c(C)c(OC(C)=O)c3c(c2O)C(=O)C(C)=C2OCOC(=C23)C(C)=CC(C)(O)C(O)C(C)C1O (configuration not stated)
[13]
  T/C: 95 % of control
[4]
  T/C: 98 % of control
[5]
  T/C: 92 % of control

## COc1cccc2c1C(=O)c1c(O)c3c(c(O)c1C2=O)C[C@@](O)(/C(C)=N\NC=O)C[C@@H]3OC1CC(N)C(O)C(C)O1 (some centres not stated)
endpoint: mean survival time, dose: 0.65 mg/kg/injection, schedule: Q01DX009 (ip), vehicle: saline
  T/C: 113 % of control
endpoint: mean survival time, dose: 1.0 mg/kg/injection, schedule: Q01DX009 (ip), vehicle: saline
  T/C: 106 % of control
endpoint: mean survival time, dose: 1.08 mg/kg/injection, schedule: Q01DX009 (ip), vehicle: saline
  T/C: 118 % of control
endpoint: mean survival time, dose: 1.8 mg/kg/injection, schedule: Q01DX009 (ip), vehicle: saline
  T/C: 114 % of control
endpoint: mean survival time, dose: 2.0 mg/kg/injection, schedule: Q01DX009 (ip), vehicle: saline
  T/C: 124 % of control
endpoint: mean survival time, dose: 3.0 mg/kg/injection, schedule: Q04DX003 (ip), vehicle: saline
  T/C: 123 % of control
endpoint: mean survival time, dose: 4.0 mg/kg/injection, schedule: Q01DX009 (ip), vehicle: saline
  T/C: 123 % of control
endpoint: mean survival time, dose: 5.0 mg/kg/injection, schedule: Q04DX003 (ip), vehicle: saline
  T/C: 120 % of control
endpoint: mean survival time, dose: 16.0 mg/kg/injection, schedule: Q01DX009 (ip), vehicle: saline
  T/C: 161 % of control
endpoint: mean survival time, dose: 22.2 mg/kg/injection, schedule: Q04DX003 (ip), vehicle: saline
  T/C: 176 % of control

## CC(Br)C(=O)NC(CC(N)=O)C(=O)O (configuration not stated)
[4]
  T/C: 102 % of control
[5]
  T/C: 98 % of control

## O=C1C=CC(n2cc(F)c(=O)[nH]c2=O)O1 (configuration not stated)
endpoint: median survival time, dose: 6.25 mg/kg/injection, schedule: Q01DX009 (ip), vehicle: saline with Tween-80
  T/C: 122 % of control
endpoint: median survival time, dose: 6.25 mg/kg/injection, schedule: Q01DX009 (ip), vehicle: saline
  T/C: 113 % of control and 115 % of control
endpoint: median survival time, dose: 12.5 mg/kg/injection, schedule: Q01DX009 (ip), vehicle: saline
  T/C: 121 % of control
endpoint: median survival time, dose: 25.0 mg/kg/injection, schedule: Q01DX009 (ip), vehicle: saline
  T/C: 122 % of control
endpoint: median survival time, dose: 50.0 mg/kg/injection, schedule: Q01DX009 (ip), vehicle: saline
  T/C: 150 % of control and 162 % of control
endpoint: median survival time, dose: 100.0 mg/kg/injection, schedule: Q01DX009 (ip), vehicle: saline with Tween-80
  T/C: 91 % of control
endpoint: median survival time, dose: 100.0 mg/kg/injection, schedule: Q01DX009 (ip), vehicle: saline
  T/C: 96 % of control and 108 % of control

## NC(CCCCNC(c1ccccc1)(c1ccccc1)c1ccccc1)C(=O)O (configuration not stated)
[12]
  T/C: 96 % of control
endpoint: mean survival time, dose: 50.0 mg/kg/injection, schedule: Q01DX009 (ip), vehicle: saline
  T/C: 94 % of control
[7]
  T/C: 103 % of control
